# Assay results: patent US20230138246A1, “USE OF DIHYDROBERBERINE OR ITS DERIVATIVES FOR ANTI-AGING” (NANJING NUTRABUILDING BIO-TECH CO., LTD., priority 2021, published 2023)
# What was measured:
# [1] = system: progerin; experiment: progerin mRNA expression by quantitative PCR in AG01972 cells; assay type: cell-based, human; conditions: 48 h
# Experimental: (§1) The AG01972 primary HGPS cell line was obtained from Coriell Cell Repositories (New Jersey, USA). Human dermal fibroblasts (HDF) were isolated from juvenile foreskins and termed 2DD was also used. AG01972 cells were cultured in T75 tissue culture treated flasks (Fisher, UK) containing Dulbecco's […]+Glutamax (Invitrogen, UK), supplemented with 15% fetal calf serum and 1% penicillin/streptomycin (Invitrogen) in an humidified, 37° C., 5% CO2/95% air incubator. The cells were passaged twice weekly. Cells were plated at a density of 2×10^5 into 9 cm dishes containing 13 mm diameter glass coverslips. Six hours after seeding, the AG01972 cells were treated with 0.1% dimethyl sulfoxide, different concentrations of DHB. DHB treatment was repeated 24 h after the initial treatment. The cells were analyzed after 48 h of treatment.
# (§2) Total RNA was isolated using a RNeasy Micro extraction kit according to the manufacturer's protocol. An on-column DNase I digestion was performed to avoid genomic DNA amplification. […] The quantitative PCR analysis was performed following the manufacturers' instructions.
# (§3) Quantification of gene expression was based on the DeltaCt Method and normalized on 18S expression. […]
# (§4) The protein levels of A-type lamins and mRNA expressions of lamin A and progerin were measured 48 h after DHB treatment on AG01972 cells. […]
# [2] = system: 2BS cells; experiment: senescence-associated β-galactosidase (SA-β-gal) assay in 2BS cells; assay type: cell-based, human; conditions: 2BS cells PD45, 0.300 μg/ml DHB; PD 45-DMEM group about 55%, PD 45 group about 60%
# Experimental: Human diploid fibroblast 2BS and WI38 cells were isolated from fetal lung fibroblast tissue. These cell lines were purchased from commercially available sources. Cells were grown in Dulbecco's Modification Eagle's Minimum Essential Medium (DMEM, Life Technologies Inc.) supplemented with 10% fetal bovine serum (FBS; Gibco), 2 mm glutamine, 100 U/ml penicillin, and 100 μg/ml streptomycin, in a humidified atmosphere with 5% CO2 at 37° C. These cells were considered as young at PD30 or below and fully senescent at PD50 or above Senescence-associated β-galactosidase (SA-β-gal) assay: 2B S cells (PD45) grown in DMEM with/without 0.300 μg/ml DHB concentration were stained according to the method of Dimri with minor modifications (Dimri, Lee et al. 1995). […] The average value of the percentage of SA-β-gal-positive cells for each set of samples was calculated based on three independent experiments. […] FIG. 3a is a graph of effect of DHB at different concentrations on the proliferation of PD45 2BS cells and WI38 cells measured by MTT-assay. […] FIG. 3d is a graph of quantification of SA-β-gal-positive cell rate of 2BS cells. Quantification analysis of SA-β-gal in FIG. 3d is shown that DHB (about 9%) could delay or reverse the population senescence of 2BS cells remarkably, as compared to the PD 45-DMEM group (about 55%) and PD 45 group (about 60%).
# [3] = compared with berberine (BBR), Feng et al. 2015; cited from earlier work
# [4] = system: lamin A; experiment: lamin A mRNA expression by quantitative PCR in AG01972 cells; assay type: cell-based, human; conditions: 48 h
# Experimental: as §1, §2, §3, §4
# [5] = system: lamin A; experiment: lamin A protein level by western blot in 2DD cells; assay type: cell-based, human; conditions: 5 μmol/L DHB
# Experimental: (§5) Whole-cell lysates of AG01972 cells and 2DD cells were collected, separated by SDS polyacrylamide gel electrophoresis, and transferred onto polyvinylidene fluoride membrane using the liquid transfer method. The blots were blocked in 10% skim milk in Tween 0.1% tris-buffered saline 1×1 h at room temperature. The membranes were incubated during the night at 4° C. Antigen-antibody binding was detected using horseradish peroxidase-conjugated species-specific secondary antibodies, followed by enhanced chemiluminescence western blotting detection reagents. The western blot results were quantified using ImageJ software. FIG. 2a is a graph of protein levels of lamin A and progerin in AG01972 cells of DHB supplemented group and non-supplemented group. FIG. 2b is a graph of protein levels of lamin A and progerin in 2DD cells of DHB supplemented group and non-supplemented group.
# [6] = system: 2BS cells; experiment: cell proliferation (CCK-8) of PD45 2BS cells; assay type: cell-based, human
# Experimental: (§6) Human diploid fibroblast 2BS and WI38 cells were isolated from fetal lung fibroblast tissue. These cell lines were purchased from commercially available sources. Cells were grown in Dulbecco's Modification Eagle's Minimum Essential Medium (DMEM, Life Technologies Inc.) supplemented with 10% fetal bovine serum (FBS; Gibco), 2 mm glutamine, 100 U/ml penicillin, and 100 μg/ml streptomycin, in a humidified atmosphere with 5% CO2 at 37° C. These cells were considered as young at PD30 or below and fully senescent at PD50 or above Cell proliferation was assayed using the CCK-8 method. […] The absorbance values of each well were measured at day 0 (4 h after plating) and on days 1, 2, 3, 4, 5, and 6. […] At the indicated points, cells were harvested with 10% CCK-8 for one hour, and the absorbance was measured at 490 nm. Each data point was measured five times, and each curve was repeated more than three times. […] FIG. 3a is a graph of effect of DHB at different concentrations on the proliferation of PD45 2BS cells and WI38 cells measured by […]. […] FIG. 3d is a graph of quantification of SA-β-gal-positive cell rate of 2BS cells. Quantification analysis of SA-β-gal in FIG. 3d is shown that DHB (about 9%) could delay or reverse the population senescence of 2BS cells remarkably, as compared to the PD 45-DMEM group (about 55%) and PD 45 group (about 60%).
# [7] = system: lamin A; experiment: lamin A protein level by western blot in AG01972 cells; assay type: cell-based, human; conditions: 5 μmol/L DHB
# Experimental: as §5
# [8] = system: progerin; experiment: progerin protein level by western blot in AG01972 cells; assay type: cell-based, human; conditions: 5 μmol/L DHB
# Experimental: as §5
# [9] = system: lamin A; experiment: lamin A mRNA expression by quantitative PCR in 2DD cells; assay type: cell-based, human; conditions: 5 μmol/L DHB
# Experimental: as §1, §2, §3, §4
# [10] = system: WI38 cells; experiment: cell proliferation (CCK-8) of PD45 WI38 cells; assay type: cell-based, human
# Experimental: as §6
# [11] = different concentrations of DHB, normalized on 18S
structure (smiles),measurement,setting,value
"COc1ccc2c(c1OC)CN1CCc3cc4c(cc3C1=C2)OCO4 [DHB, Dihydroberberine]",concentration of maximum effect on progerin mRNA expression,[1],5 µmol/L
same,progerin mRNA expression compared with untreated cells,[1]; [11],dose-dependent decrease
same,SA-β-gal-positive cell rate,[2],about 9%
same,absorption,[3],improved absorption
same,oral bioavailability,[3],enhanced oral bioavailability
same,concentration of maximum effect on lamin A mRNA expression,[4],5 µmol/L
same,lamin A mRNA expression compared with untreated cells,[4]; [11],dose-dependent decrease
same,lamin A protein level (western blot) compared with untreated cells,[5],decrease in lamin A
same,"effect on proliferation, time course","[6]; 2BS (PD45) cells, 0.3 μg/ml, seven days of incubation",promoted proliferation
same,optimum concentration for proliferation,"[6]; PD45 2BS cells, FIG. 3a",0.3 µg/mL
same,lamin A protein level (western blot) compared with untreated cells,[7],decrease in lamin A
same,progerin protein content (western blot) compared with untreated cells,[8],significant decrease in progerin content
same,lamin A mRNA expression,[9],decrease in lamin A mRNA expression
same,optimum concentration for proliferation,"[10]; PD45 WI38 cells, FIG. 3a",0.3 µg/mL
same,"effect on proliferation, time course","[10]; WI38 (PD45) cells, 0.3 μg/ml, seven days of incubation",promoted proliferation
